From patent publication US10316035B2, “Triazolopyridine inhibitors of myeloperoxidase” (BRISTOL-MYERS SQUIBB COMPANY, priority 2015, dated 2019)
Counter-ions that a name gives are not always drawn.

Biological target: T1, myeloperoxidase (MPO) (Homo sapiens, UniProt P05164)
T1 sequence (P05164 49-745): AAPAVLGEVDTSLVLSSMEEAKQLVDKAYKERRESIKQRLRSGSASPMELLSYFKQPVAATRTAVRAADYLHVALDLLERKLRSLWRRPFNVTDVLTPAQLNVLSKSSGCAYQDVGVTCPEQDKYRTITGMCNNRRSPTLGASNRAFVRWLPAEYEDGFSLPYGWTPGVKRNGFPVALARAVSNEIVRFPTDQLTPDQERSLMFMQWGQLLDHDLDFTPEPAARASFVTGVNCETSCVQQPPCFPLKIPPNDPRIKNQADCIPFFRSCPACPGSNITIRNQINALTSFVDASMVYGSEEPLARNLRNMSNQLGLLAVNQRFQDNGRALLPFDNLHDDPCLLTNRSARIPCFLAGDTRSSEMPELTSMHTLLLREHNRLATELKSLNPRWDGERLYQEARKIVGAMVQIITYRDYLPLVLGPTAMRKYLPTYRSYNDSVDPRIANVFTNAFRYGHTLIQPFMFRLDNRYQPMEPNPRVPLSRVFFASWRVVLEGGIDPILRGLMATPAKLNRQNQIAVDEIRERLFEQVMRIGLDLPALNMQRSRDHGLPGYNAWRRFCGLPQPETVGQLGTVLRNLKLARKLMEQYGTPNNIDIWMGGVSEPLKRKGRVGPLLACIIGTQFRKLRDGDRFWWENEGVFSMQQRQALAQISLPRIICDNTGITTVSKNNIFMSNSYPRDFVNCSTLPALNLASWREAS
Assay: MPO peroxidation assay (Amplex Red assay)
Assay type: biochemical
Settings: not given
Summary of the method: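 MPO (200 pM) with 40 nM H2O2 was preincubated 10 min at room temperature with inhibitor in 100 mM KPi pH 7.4. A mix of Amplex Red (200 μM) and H2O2 (10 mM) was then added and resorufin fluorescence read kinetically for 15 min. Slopes over 180–540 s gave % inhibition and IC50 via a four-parameter Hill fit.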

IC50 [nM]	SMILES
1 to 100	Nc1cc(OCc2ccccc2Cl)c2nn[nH]c2n1 [Example 12, 7-(2-Chlorobenzyloxy)-3H-[1,2,3]triazolo[4,5-b]pyridin-5-amine]

Same assay, conditions: MPO peroxidation, potency range class; read-out: Amplex Red IC50

SMILES	IC50 [nM]
Nc1cc(OCc2c(F)cc(-n3ccnc3)cc2F)c2nn[nH]c2n1 [Example 279, 7-((2,6-difluoro-4-(1H-imidazol-1-yl)benzyl)oxy)-3H-[1,2,3]triazolo[4,5-b] pyridin-5-amine]	101 to 999
CC(Oc1cc(N)nc2[nH]nnc12)c1cccc(OC(F)(F)F)c1 (centres unmarked) [Example 143, 7-(1-(3-(Trifluoromethoxy)phenyl)ethoxy)-3H-[1,2,3]triazolo[4,5-b]pyridin-5-amine]	101 to 999
N#Cc1ccc(OC(F)F)cc1COc1cc(N)nc2[nH]nnc12 [Example 351, 2-(((5-amino-3H-[1,2,3]triazolo[4,5-b]pyridin-7-yl)oxy)methyl)-4-(difluoromethoxy)benzonitrile]	1 to 100
Nc1cc(OCc2ccc(C(=O)N3CCC[C@H]3CO)cc2Cl)c2nn[nH]c2n1 [Example 199, (S)-(4-((5-amino-3H-[1,2,3]triazolo [4,5-b]pyridin-7-yloxy)methyl)-3-chlorophenyl)(2-(hydroxymethyl)pyrrolidin-1-yl)methanone]	101 to 999
CCN(CCO)C(=O)c1ccc(Cl)c(COc2cc(N)nc3[nH]nnc23)c1 [Example 184, 3-((5-amino-3H-[1,2,3]triazolo [4,5-b]pyridin-7-yloxy)methyl)-4-chloro-N-ethyl-N-(2-hydroxyethyl) benzamide]	101 to 999
CNS(=O)(=O)c1ccc(-c2ccc(COc3cc(N)nc4[nH]nnc34)c(OC(F)(F)F)c2)cc1 [Example 286, 4′-(((5-amino-3H-[1,2,3]triazolo[4,5-b]pyridin-7-yl)oxy)methyl)-N-methyl-3′-(trifluoromethoxy)-[1,1′-biphenyl]-4-sulfonamide]	1 to 100
CCC(Oc1cc(N)nc2[nH]nnc12)c1ccc(Cl)c(Cl)c1 (centres unmarked) [Example 145, 7-(1-(3,4-Dichlorophenyl)propoxy)-3H-[1,2,3]triazolo[4,5-b]pyridin-5-amine]	101 to 999
N#Cc1ccc(-c2cc(F)c(COc3cc(N)nc4[nH]nnc34)c(F)c2)cn1 [Example 338, 5-(4-(((5-amino-3H-[1,2,3]triazolo[4,5-b]pyridin-7-yl)oxy)methyl)-3,5-difluorophenyl) picolinonitrile]	1 to 100
COc1ccccc1CNC(=O)c1ccc(COc2cc(N)nc3[nH]nnc23)c(Cl)c1 [Example 215, 4-((5-amino-3H-[1,2,3]triazolo[4,5-b]pyridin-7-yloxy)methyl)-3-chloro-N-(2-methoxybenzyl)benzamide]	1 to 100
Nc1cc(OCc2cc(C(=O)N3CCC(O)C3)ccc2Cl)c2nn[nH]c2n1 (centres unmarked) [Example 176, (3-((5-amino-3H-[1,2,3]triazolo [4,5-b]pyridin-7-yloxy)methyl)-4-chlorophenyl)(3-hydroxypyrrolidin-1-yl)methanone]	101 to 999
COc1ccccc1CNC(=O)c1ccc(COc2cc(N)nc3[nH]nnc23)c(Cl)c1 [Example 331, 4-((5-amino-3H-[1,2,3]triazolo[4,5-b]pyridin-7-yloxy)methyl)-3-chloro-N-(2-methoxybenzyl) benzamide]	1 to 100
Nc1cc(OCc2cc(C(=O)N3CCC3)ccc2Cl)c2nn[nH]c2n1 [Example 182, (3-((5-amino-3H-[1,2,3]triazolo [4,5-b]pyridin-7-yloxy)methyl)-4-chlorophenyl)(azetidin-1-yl)methanone]	101 to 999
Nc1cc(OCc2cc(C(=O)NC3CCS(=O)(=O)C3)ccc2Cl)c2nn[nH]c2n1 (centres unmarked) [Example 193, 3-((5-amino-3H-[1,2,3]triazolo [4,5-b]pyridin-7-yloxy)methyl)-4-chloro-N-(1,1-dioxidotetrahydrothien-3-yl)benzamide]	101 to 999
Nc1cc(OCc2c(F)cc(Br)cc2F)c2nn[nH]c2n1 [Example 233, 7-((4-Bromo-2,6-difluorobenzyl)oxy)-3H-[1,2,3]triazolo[4,5-b]pyridin-5-amine, TFA]	1 to 100
COCCNC(=O)c1ccc(F)c(COc2cc(N)nc3[nH]nnc23)c1 [Example 158, 3-((5-amino-3H-[1,2,3]triazolo[4,5-b]pyridin-7-yloxy)methyl)-4-fluoro-N-(2-methoxyethyl)benzamide]	1 to 100

Now from value to compound:

IC50 [nM]	SMILES
1 to 100	Cc1c(COc2cc(N)nc3[nH]nnc23)cccc1-c1cncc(F)c1 [Example 63, 7-(3-(5-Fluoropyridin-3-yl)-2-methylbenzyloxy)-3H-[1,2,3]triazolo[4,5-b]pyridin-5-amine]
1 to 100	N#Cc1ccc(-c2ccc(COc3cc(N)nc4[nH]nnc34)c(C#N)c2)cn1 [Example 325, 5-(4-(((5-amino-3H-[1,2,3]triazolo[4,5-b]pyridin-7-yl)oxy)methyl)-3-cyanophenyl) picolinonitrile]
101 to 999	Nc1cc(OCc2cccc(-c3ccn(Cc4ccccc4)n3)c2)c2nn[nH]c2n1 [Example 75, 7-(3-(1-Benzyl-1H-pyrazol-3-yl)benzyloxy)-3H-[1,2,3]triazolo[4,5-b]pyridin-5-amine]
101 to 999	Nc1cc(OCc2ccc(OC(F)F)cc2)c2nn[nH]c2n1 [Example 17, 7-(4-(Difluoromethoxy)benzyloxy)-3H-[1,2,3]triazolo[4,5-b]pyridin-5-amine]
1 to 100	Nc1cc(OCc2ccc(-n3ccnc3)cc2OC(F)(F)F)c2nn[nH]c2n1 [Example 244, 7-((4-(1H-Imidazol-1-yl)-2-(trifluoromethoxy)benzyl)oxy)-3H-[1,2,3]triazolo[4,5-b]pyridin-5-amine]
1 to 100	Cc1c(COc2cc(N)nc3[nH]nnc23)cccc1-c1ccccc1 [Example 69, 7-((2-Methylbiphenyl-3-yl)methoxy)-3H-[1,2,3]triazolo[4,5-b]pyridin-5-amine]
1 to 100	N#Cc1cccc(-c2cccc(COc3cc(N)nc4[nH]nnc34)c2)c1 [Example 92, 3′-((5-Amino-3H-[1,2,3]triazolo[4,5-b]pyridin-7-yloxy)methyl)biphenyl-3-carbonitrile]
101 to 999	COc1c(COc2cc(N)nc3[nH]nnc23)cccc1-c1cccc(F)c1 [Example 67, 7-((3′-Fluoro-2-methoxybiphenyl-3-yl)methoxy)-3H-[1,2,3]triazolo[4,5-b]pyridin-5-amine]
1 to 100	CS(=O)(=O)c1cc(Cl)ccc1COc1cc(N)nc2[nH]nnc12 [Example 131, 7-(4-Chloro-2-(methylsulfonyl)benzyloxy)-3H-[1,2,3]triazolo[4,5-b]pyridin-5-amine]
1 to 100	Nc1cc(OCc2cccc(OC(F)(F)F)c2)c2nn[nH]c2n1 [Example 13, 7-(3-(Trifluoromethoxy)benzyloxy)-3H-[1,2,3]triazolo[4,5-b]pyridin-5-amine]
1 to 100	Nc1cc(OCc2ccccc2OCc2ccccc2)c2nn[nH]c2n1 [Example 20, 7-(2-(Benzyloxy)benzyloxy)-3H-[1,2,3]triazolo[4,5-b]pyridin-5-amine]
1 to 100	COc1cc(-n2cccn2)ccc1COc1cc(N)nc2[nH]nnc12 [Example 243, 7-((2-Methoxy-4-(1H-pyrazol-1-yl)benzyl)oxy)-3H-[1,2,3]triazolo[4,5-b]pyridin-5-amine]
1 to 100	Nc1cc(OCc2cc(Cl)ccc2C(F)(F)F)c2nn[nH]c2n1 [Example 241, 7-((5-Chloro-2-(trifluoromethyl)benzyl)oxy)-3H-[1,2,3]triazolo[4,5-b]pyridin-5-amine]
